Tests used:
[1] = test system: subjects suffering from erectile dysfunction (from mild to moderate); settings: 600 mg/daily, 26 subjects; cited from earlier work
[2] = test system: cGMP in ECV-304 cells (human vascular endothelium cells); assay: cGMP levels by ELISA in ECV-304 cells after treatment with Menix active ingredients and associations; type: cell-based; design: Average % deviation from control (cGMP levels): concentration or dose not given beside the values; settings: for pM (cGMP), levels of expression of cGMP: 48 hours of treatment, average of n=3 biological replicates, concentrations of Table 3, control 82.1; for Average % deviation from control (cGMP levels): 48 hours, vs non-treated cells
Procedure: For this experiment, human vascular endothelium cells were selected (ECV-304). […] At this point, the cells were treated with trypsin and EDTA and were re-examined in appropriate culture flasks.
The cGMP levels were determined by ELISA assay, following the operating instructions given in the protocol supplied by the manufacturer (cGMP ELISA KIT—STA 505-5, Cloud Clone Corp), running the assay in the acetylated embodiment to increase the sensitivity thereof.
For the experiment, the ECV-304 cells were sowed in MW-6 and treated for 48 hours with the active ingredients of Menix and associations thereof. After the 48 hours had elapsed, the supernatants were collected and frozen at −80° C. until use. The untreated cells were used as a control.
The base levels of cGMP were determined by ELISA assay, following instructions supplied by the manufacturer (STA 505-5 Cell Biolabs Inc).
The results, expressed in terms of concentration (pM) of cGMP average±standard deviation (n=3 biological replicates), are set out in FIG. 3 and Table 4.

diabetic rat = settings: cited from earlier work
[3] = test system: subjects suffering from mild erectile dysfunction; settings: 1.5 g daily for a month, oral, 24 subjects; cited from earlier work
[4] = Solubility tests of the active ingredients of Menix; type: physicochemical; settings: tested in order: culture medium, water, DMSO, organic solvents
Source text: Before being subjected to the cell assays, the active ingredients of Menix have been subjected to solubility tests to define the best solubilization agent for each of the assays.

[5] = oral administration; cited from earlier work
[6] = test system: rats with acute arteriogenic erectile dysfunction; settings: 2% p/v in water for three weeks; cited from earlier work
[7] = test system: rats affected by type-1 diabetes; settings: 400 mg/kg/daily; cited from earlier work
aged rats = settings: dissolved 1% in water; cited from earlier work
ICAM-1 and P-selectine = settings: 2 g daily, adjuvant to sildenafil twice weekly; cited from earlier work

Structure (SMILES): O=C(O)CCCCC1CCSS1 (racemic) [α-LIPOIC ACID, alpha-lipoic acid]
- Indicators connected to erectile dysfunction (IIEF-5) [1]: significant improvement
- pM (cGMP), levels of expression of cGMP [2]: 60 pM
- Average % deviation from control (cGMP levels) [2]: −26.92%
- Levels of endothelial NOS and neuron NOS (diabetic rat; 65 mg/kg/daily for 15 days): increase in levels of endothelial NOS and of neuron NOS
- Corpus cavernosum dysfunctions (diabetic rat; 300 mg/kg/daily for a month): prevented and ameliorated corpus cavernosum dysfunctions

Structure (SMILES): NC(=O)NCCCC(N)C(=O)O (centres unmarked) [CITRULLINE, 2-amino-5-(carbamoylamino)pentanoic acid]
- Erectile function on EHS and IIEF-5 [3]: increase in erectile function
- Solvent in which the active ingredient has been solubilized [4]: Culture medium
- Blood levels of L-arginine compared with basic values [5]: increase in the blood levels of L-arginine
- pM (cGMP), levels of expression of cGMP [2]: 140 pM
- Average % deviation from control (cGMP levels) [2]: 70.52%
- Erectile function [6]: significant improvement in erectile function
- NO plasmatic levels [6]: increasing NO plasmatic levels

Structure (SMILES): CC(=O)O[C@H](CC(=O)[O-])C[N+](C)(C)C [N-ACETYL-L-CARNITINE, (R)-3-acetyloxy-4-trimethylammonio-butanoate]
- Solvent in which the active ingredient has been solubilized [4]: Water
- pM (cGMP), levels of expression of cGMP [2]: 22 pM
- Average % deviation from control (cGMP levels) [2]: −73.20%

Structure (SMILES): NCCS(=O)(=O)O [TAURINE, 2-aminoethanesulphonic acid]
- Levels of cGMP and eNOS in the corpus cavernosum [7]: increased the levels of both cGMP and eNOS
- Pressure inside the corpus cavernosum [7]: increase in pressure inside the corpus cavernosum
- Solvent in which the active ingredient has been solubilized [4]: Culture medium
- Levels of NOS and NO in the rat's penis (aged rats): increases levels of both NOS and NO
- Secretion of androgens, testosterone (aged rats): increases the secretion of androgens and in particular of testosterone
- Sperm quality (count, vitality, motility) (aged rats): improves sperm quality
- pM (cGMP), levels of expression of cGMP [2]: 137 pM
- Average % deviation from control (cGMP levels) [2]: 66.87%

Structure (SMILES): NCC(=O)[O-].NCC(=O)[O-].[Zn+2] [Zn, zinc bisglycinate]
- pM (cGMP), levels of expression of cGMP [2]: 90 pM
- Average % deviation from control (cGMP levels) [2]: 9.62%

Structure (SMILES): CCC(=O)O[C@H](CC(=O)[O-])C[N+](C)(C)C [propionyl-L-carnitine]
- Endogenous levels of endothelial dysfunction markers such as ICAM-1 and P-selectine (ICAM-1 and P-selectine): significant reduction

Reference: patent US20200155632A1, “COMPOSITION FOR TREATING AND PREVENTING MALE SEXUAL DISORDERS” (KOLINPHARMA S.P.A., priority 2017, published 2020)
